Patent publication US9315490B2, “2,5-substituted pyrimidines” (Grünenthal GmbH, priority 2014, dated 2016)

What follows are compounds tested against T1, human PDE4B1 (Homo sapiens, UniProt Q07343) (assay: TR-FRET assay using the LANCE Ultra cAMP kit to determine the activity of hPDE4B1). Conditions: test concentration 1 μM, 1 µM.
T1 construct: host or cells: Sf9 cells
T1 sequence (Q07343 whole entry): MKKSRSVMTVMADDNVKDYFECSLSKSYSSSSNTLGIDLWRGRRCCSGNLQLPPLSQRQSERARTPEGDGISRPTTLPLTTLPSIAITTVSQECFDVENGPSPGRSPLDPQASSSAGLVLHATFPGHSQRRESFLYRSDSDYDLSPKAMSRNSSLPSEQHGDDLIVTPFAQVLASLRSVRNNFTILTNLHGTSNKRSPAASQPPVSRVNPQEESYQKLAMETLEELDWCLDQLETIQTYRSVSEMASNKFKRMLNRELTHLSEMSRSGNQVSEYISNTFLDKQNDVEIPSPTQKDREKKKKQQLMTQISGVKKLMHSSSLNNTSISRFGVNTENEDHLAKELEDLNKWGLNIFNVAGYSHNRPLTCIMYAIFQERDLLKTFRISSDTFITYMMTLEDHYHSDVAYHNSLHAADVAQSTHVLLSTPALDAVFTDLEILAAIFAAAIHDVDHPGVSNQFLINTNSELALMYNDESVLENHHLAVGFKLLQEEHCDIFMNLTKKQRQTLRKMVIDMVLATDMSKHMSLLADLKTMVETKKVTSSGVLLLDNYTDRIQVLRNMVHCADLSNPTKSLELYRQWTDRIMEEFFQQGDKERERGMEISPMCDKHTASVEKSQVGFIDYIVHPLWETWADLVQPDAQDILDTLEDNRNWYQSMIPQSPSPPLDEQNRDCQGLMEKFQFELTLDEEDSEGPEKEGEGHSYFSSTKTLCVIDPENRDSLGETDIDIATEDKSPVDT
Type: biochemical
Summary of the method: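 Sf9-expressed recombinant human PDE4B1 (0.96 U) hydrolyses 500 nM cAMP for 30 minutes at room temperature in 50 mM Tris-HCl, 50 mM MgCl2, 5 mM DTT, pH 8.5. The reaction is stopped with IBMX, and residual cAMP is measured by TR-FRET (665/620 ratio). IC50 comes from ten concentrations.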
`CC(O)c1ccnc(-c2cnc(-n3cc([S+](C)[O-])c4ccc(C(=O)N5CCOCC5)cc43)nc2)c1` (stereo not shown) [Example 300, (1-(5-(4-(1-Hydroxyethyl)pyridin-2-yl)pyrimidin-2-yl)-3-(methylsulfinyl)-1H-indol-6-yl)(morpholino)methanone] was tested, and the “Inhibition in % (inhibition of PDE4B)” value was 93%.

Same assay, conditions: test concentration 1 μM, read-out: Inhibition in % (inhibition of PDE4B)
Compound `C[S+]([O-])c1cn(-c2ncc(-c3cc(NCC4CC4)ccn3)cn2)c2cc(C(=O)N3CCOCC3)ccc12` (stereo not shown) [Example 296, (1-(5-(4-((Cyclopropylmethyl)amino)pyridin-2-yl)pyrimidin-2-yl)-3-(methylsulfinyl)-1H-indol-6-yl)(morpholino)methanone] has an inhibition at 1 µM of 97%. In the case of `C[S+]([O-])c1cn(-c2ncc(-c3cc(N4CCCC4)ccn3)cn2)c2cc(C(=O)N3CCOCC3)ccc12` (stereo not shown) [Example 297, (3-(Methylsulfinyl)-1-(5-(4-(pyrrolidin-1-yl)pyridin-2-yl)pyrimidin-2-yl)-1H-indol-6-yl)(morpholino)methanone], the inhibition at 1 µM was 93%. Compound `CCNc1ccnc(-c2cnc(-n3cc([S+](C)[O-])c4ccc(C(=O)N5CCOCC5)cc43)nc2)c1` (stereo not shown) [Example 298, (1-(5-(4-(Ethylamino)pyridin-2-yl)pyrimidin-2-yl)-3-(methylsulfinyl)-1H-indol-6-yl)(morpholino)methanone] has an inhibition at 1 µM of 119%. `C[S+]([O-])c1cn(-c2ncc(-c3cc(Cl)ccn3)cn2)c2cc(C(=O)N3CCOCC3)ccc12` (stereo not shown) [Example 299, (1-(5-(4-Chloropyridin-2-yl)pyrimidin-2-yl)-3-(methylsulfinyl)-1H-indol-6-yl)(morpholino)methanone] was tested, and the inhibition at 1 µM was 94%. `C[S+]([O-])c1cn(-c2ncc(-c3ccccc3F)cn2)c2cc(C(=O)N3CC=CCC3)ccc12` (stereo not shown) [Example 306, (5,6-Dihydropyridin-1(2H)-yl)(1-(5-(2-fluorophenyl)pyrimidin-2-yl)-3-(methylsulfinyl)-1H-indol-6-yl)methanone] gave an inhibition at 1 µM of 80%. `CN(CCCO)C(=O)c1ccc2c([S+](C)[O-])cn(-c3ncc(-c4ccccc4F)cn3)c2c1` (stereo not shown) [Example 307, 1-(5-(2-Fluorophenyl)pyrimidin-2-yl)-N-(3-hydroxypropyl)-N-methyl-3-(methylsulfinyl)-1H-indole-6-carboxamide] showed an inhibition at 1 µM of 82%. Work on `CN(C)C(=O)c1ccc2c([S+](C)[O-])cn(-c3ncc(-c4ccccn4)cn3)c2c1` (stereo not shown) [Example 313, N,N-Dimethyl-3-(methylsulfinyl)-1-(5-(pyridin-2-yl)pyrimidin-2-yl)-1H-indole-6-carboxamide] yielded an inhibition at 1 µM of 92%. In the case of `CC(C)c1ccnc(-c2cnc(-n3cc(S(C)(=O)=O)c4ccc(C(=O)N5CCOCC5)cc43)nc2)c1` [Example 324, (1-(5-(4-Isopropylpyridin-2-yl)pyrimidin-2-yl)-3-(methylsulfonyl)-1H-indol-6-yl)(morpholino)methanone], the inhibition at 1 µM was 76%.

Same assay, conditions: test concentration 10 μM (marked in cell), read-out: Inhibition in % (inhibition of PDE4B)
Work on `C[S+]([O-])c1cn(-c2ncc(-c3cc(C4(O)CC4)ccc3F)cn2)c2cc(C(=O)N3CCOCC3)ccc12` (stereo not shown) [Example 294, (1-(5-(2-Fluoro-5-(1-hydroxycyclopropyl)phenyl)pyrimidin-2-yl)-3-(methylsulfinyl)-1H-indol-6-yl)(morpholino)methanone] yielded an inhibition at 10 µM of 98%. With `C[S+]([O-])c1cn(-c2ncc(-c3cc(C4(O)CC4)ccn3)cn2)c2cc(C(=O)N3CCOCC3)ccc12` (stereo not shown) [Example 295, (1-(5-(4-(1-Hydroxycyclopropyl)pyridin-2-yl)pyrimidin-2-yl)-3-(methylsulfinyl)-1H-indol-6-yl)(morpholino)methanone] the inhibition at 10 µM was 98%. Work on `C[S+]([O-])c1cn(-c2ncc(-c3cc(N4CCCC4)ccn3)cn2)c2cc(C(=O)N3CCOCC3)ccc12` (stereo not shown) [Example 301, (3-(Methylsulfinyl)-1-(5-(4-(pyrrolidin-1-yl)pyridin-2-yl)pyrimidin-2-yl)-1H-indol-6-yl)(morpholino)methanone] yielded an inhibition at 10 µM of 99%. `C[S+]([O-])c1cn(-c2ncc(-c3ccccc3F)cn2)c2cc(C(=O)N3CC[C@@H](CO)C3)ccc12` (stereo partly drawn) [Example 302, (1-(5-(2-Fluorophenyl)pyrimidin-2-yl)-3-(methylsulfinyl)-1H-indol-6-yl)((R)-3-(hydroxymethyl)pyrrolidin-1-yl)methanone] was tested, and the inhibition at 10 µM was 103%. In the case of `C[S+]([O-])c1cn(-c2ncc(-c3ccccc3F)cn2)c2cc(C(=O)N3CC[C@H](CO)C3)ccc12` (stereo partly drawn) [Example 303, (1-(5-(2-Fluorophenyl)pyrimidin-2-yl)-3-(methylsulfinyl)-1H-indol-6-yl)((S)-3-(hydroxymethyl)pyrrolidin-1-yl)methanone], the inhibition at 10 µM was 99%. For `CNC(=O)CN(C)C(=O)c1ccc2c([S+](C)[O-])cn(-c3ncc(-c4cc(C)ccc4F)cn3)c2c1` (stereo not shown) [Example 304, 1-(5-(2-Fluoro-5-methylphenyl)pyrimidin-2-yl)-N-methyl-N-(2-(methylamino)-2-oxoethyl)-3-(methylsulfinyl)-1H-indole-6-carboxamide], the inhibition at 10 µM was 115%. With `CNC(=O)CN(C)C(=O)c1ccc2c(S(C)(=O)=O)cn(-c3ncc(-c4cc(C)ccc4F)cn3)c2c1` [Example 305, 1-(5-(2-Fluoro-5-methylphenyl)pyrimidin-2-yl)-N-methyl-N-(2-(methylamino)-2-oxoethyl)-3-(methylsulfonyl)-1H-indole-6-carboxamide] the inhibition at 10 µM was 85%. In the case of `C[S+]([O-])c1cn(-c2ncc(-c3ccccc3F)cn2)c2cc(C(=O)N3C[C@@H]4C[C@H]3CO4)ccc12` (stereo partly drawn) [Example 308, (1S,4S)-2-Oxa-5-azabicyclo[2.2.1]heptan-5-yl(1-(5-(2-fluorophenyl)pyrimidin-2-yl)-3-(methylsulfinyl)-1H-indol-6-yl)methanone], the inhibition at 10 µM was 101%. Compound `CS(=O)(=O)c1cn(-c2ncc(-c3ccccc3F)cn2)c2cc(C(=O)N3C[C@@H]4C[C@H]3CO4)ccc12` [Example 309, (1S,4S)-2-Oxa-5-azabicyclo[2.2.1]heptan-5-yl(1-(5-(2-fluorophenyl)pyrimidin-2-yl)-3-(methylsulfonyl)-1H-indol-6-yl)methanone] has an inhibition at 10 µM of 97%. For `COc1ccc(F)c(-c2cnc(-n3cc(S(C)(=O)=O)c4ccc(C(=O)N(C)CC(N)=O)cc43)nc2)c1` [Example 310, N-(2-Amino-2-oxoethyl)-1-(5-(2-fluoro-5-methoxyphenyl)pyrimidin-2-yl)-N-methyl-3-(methylsulfonyl)-1H-indole-6-carboxamide], the inhibition at 10 µM was 91%. `CCc1ccc(F)c(-c2cnc(-n3cc(S(C)(=O)=O)c4ccc(C(=O)N(C)CC(N)=O)cc43)nc2)c1` [Example 311, N-(2-Amino-2-oxoethyl)-1-(5-(5-ethyl-2-fluorophenyl)pyrimidin-2-yl)-N-methyl-3-(methylsulfonyl)-1H-indole-6-carboxamide] gave an inhibition at 10 µM of 98%. Work on `CS(=O)(=O)c1cn(-c2ncc(-c3cc(Cl)ccn3)cn2)c2cc(C(=O)N3CCOCC3)ccc12` [Example 312, (1-(5-(4-Chloropyridin-2-yl)pyrimidin-2-yl)-3-(methylsulfonyl)-1H-indol-6-yl)(morpholino)methanone] yielded an inhibition at 10 µM of 93%. In the case of `Cc1cccc(-c2cnc(-n3cc([S+](C)[O-])c4ccc(C(=O)N(C)C)cc43)nc2)n1` (stereo not shown) [Example 314, N,N-Dimethyl-1-(5-(6-methylpyridin-2-yl)pyrimidin-2-yl)-3-(methylsulfinyl)-1H-indole-6-carboxamide], the inhibition at 10 µM was 98%. `Cc1ccc(F)c(-c2cnc(-n3cc([S+](C)[O-])c4ccc(C(=O)N(C)CCO)cc43)nc2)c1` (stereo not shown) [Example 315, 1-(5-(2-Fluoro-5-methylphenyl)pyrimidin-2-yl)-N-(2-hydroxyethyl)-N-methyl-3-(methylsulfinyl)-1H-indole-6-carboxamide] gave an inhibition at 10 µM of 97%. For `CCOc1ccc(F)c(-c2cnc(-n3cc([S+](C)[O-])c4ccc(C(=O)N(C)CCO)cc43)nc2)c1` (stereo not shown) [Example 316, 1-(5-(5-Ethoxy-2-fluorophenyl)pyrimidin-2-yl)-N-(2-hydroxyethyl)-N-methyl-3-(methylsulfinyl)-1H-indole-6-carboxamide], the inhibition at 10 µM was 98%. `Cc1ccnc(-c2cnc(-n3cc([S+](C)[O-])c4ccc(C(=O)N(C)CCO)cc43)nc2)c1` (stereo not shown) [Example 317, N-(2-Hydroxyethyl)-N-methyl-1-(5-(4-methylpyridin-2-yl)pyrimidin-2-yl)-3-(methylsulfinyl)-1H-indole-6-carboxamide] was tested, and the inhibition at 10 µM was 87%. `Cc1ccnc(-c2cnc(-n3cc(C(C)O)c4ccc(C(=O)N5CCOCC5)cc43)nc2)c1` (stereo not shown) [Example 318, (3-(1-Hydroxyethyl)-1-(5-(4-methylpyridin-2-yl)pyrimidin-2-yl)-1H-indol-6-yl)(morpholino)methanone] gave an inhibition at 10 µM of 96%. `CCOc1ccc(F)c(-c2cnc(-n3cc(C(C)O)c4ccc(C(=O)N5CCOCC5)cc43)nc2)c1` (stereo not shown) [Example 319, (1-(5-(5-Ethoxy-2-fluorophenyl)pyrimidin-2-yl)-3-(1-hydroxyethyl)-1H-indol-6-yl)(morpholino)methanone] showed an inhibition at 10 µM of 99%. With `Cc1ccc(F)c(-c2cnc(-n3cc(C(C)O)c4ccc(C(=O)N5CCOCC5)cc43)nc2)c1` (stereo not shown) [Example 320] the inhibition at 10 µM was 109%. `Cc1ccc(F)c(-c2cnc(-n3cc(C(C)O)c4ccc(C(=O)N5CC[C@@H](N)C5)cc43)nc2)c1` (stereo partly drawn) [Example 321, ((R)-3-Aminopyrrolidin-1-yl)(1-(5-(2-fluoro-5-methylphenyl)pyrimidin-2-yl)-3-(1-hydroxyethyl)-1H-indol-6-yl)methanone] gave an inhibition at 10 µM of 143%. `Cc1ccc(F)c(-c2cnc(-n3cc(C(C)O)c4ccc(C(=O)N(C)C)cc43)nc2)c1` (stereo not shown) [Example 322, 1-(5-(2-Fluoro-5-methylphenyl)pyrimidin-2-yl)-3-(1-hydroxyethyl)-N,N-dimethyl-1H-indole-6-carboxamide] gave an inhibition at 10 µM of 100%. In the case of `Cc1ccc(F)c(-c2cnc(-n3cc(C(C)O)c4ccc(C(=O)N(C)CC(N)=O)cc43)nc2)c1` (stereo not shown) [Example 323, N-(2-Amino-2-oxoethyl)-1-(5-(2-fluoro-5-methylphenyl)pyrimidin-2-yl)-3-(1-hydroxyethyl)-N-methyl-1H-indole-6-carboxamide], the inhibition at 10 µM was 103%.
